From PubChem BioAssay AID248 (DTP/NCI, 2004)
Several values for one entry are separate records, joined by “and”; a condition that tells them apart may be missing. Identical values can stand only once. Toxic doses and inconclusive results are not listed. No stated cut-off is given here; in the data, active means T/C of 150% or more; inactive means T/C below 125%.

Tested on: L1210 leukemia ip in BDF1 mice, survival T/C
Test: NCI In Vivo Anticancer Drug Screen. Data for tumor model L1210 Leukemia (intraperitoneal) in B6D2F1 (BDF1) mice
Details: endpoint: mean survival time, higher = longer survival
In short: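 Tumor was transplanted into mice, which were then dosed with test compound or vehicle alone. Survival was recorded for each group, and the treated figure was expressed relative to the control figure.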

[1] = dose: 100.0 mg/kg/injection, schedule: Q04DX003 (ip), vehicle: Klucel (hydroxypropylcellulose) (HPC)
[2] = dose: 200.0 mg/kg/injection, schedule: Q04DX003 (ip), vehicle: Klucel (hydroxypropylcellulose) (HPC)
[3] = dose: 400.0 mg/kg/injection, schedule: Q04DX003 (ip), vehicle: Klucel (hydroxypropylcellulose) (HPC)
[4] = dose: 100.0 mg/kg/injection, schedule: Q01DX001 (ip), vehicle: Klucel (hydroxypropylcellulose) (HPC)
[5] = dose: 200.0 mg/kg/injection, schedule: Q01DX001 (ip), vehicle: Klucel (hydroxypropylcellulose) (HPC)
[6] = dose: 400.0 mg/kg/injection, schedule: Q01DX001 (ip), vehicle: Klucel (hydroxypropylcellulose) (HPC)
[7] = dose: 100.0 mg/kg/injection, schedule: Q04DX003 (ip), vehicle: saline
[8] = dose: 200.0 mg/kg/injection, schedule: Q04DX003 (ip), vehicle: saline
[9] = dose: 100.0 mg/kg/injection, schedule: Q01DX009 (ip), vehicle: Klucel (hydroxypropylcellulose) (HPC)
[10] = dose: 200.0 mg/kg/injection, schedule: Q01DX009 (ip), vehicle: Klucel (hydroxypropylcellulose) (HPC)
[11] = dose: 400.0 mg/kg/injection, schedule: Q01DX009 (ip), vehicle: Klucel (hydroxypropylcellulose) (HPC)
[12] = dose: 50.0 mg/kg/injection, schedule: Q01DX001 (ip), vehicle: saline
[13] = dose: 50.0 mg/kg/injection, schedule: Q01DX009 (ip), vehicle: saline
[14] = dose: 100.0 mg/kg/injection, schedule: Q01DX001 (ip), vehicle: saline
[15] = dose: 200.0 mg/kg/injection, schedule: Q01DX001 (ip), vehicle: saline
[16] = dose: 400.0 mg/kg/injection, schedule: Q01DX001 (ip), vehicle: saline
[17] = dose: 100.0 mg/kg/injection, schedule: Q04DX002 (ip), vehicle: saline
[18] = dose: 200.0 mg/kg/injection, schedule: Q04DX002 (ip), vehicle: saline
[19] = dose: 400.0 mg/kg/injection, schedule: Q04DX002 (ip), vehicle: saline
[20] = dose: 100.0 mg/kg/injection, schedule: Q04DX003 (ip), vehicle: saline with Tween-80
[21] = dose: 25.0 mg/kg/injection, schedule: Q04DX003 (ip), vehicle: saline
[22] = dose: 50.0 mg/kg/injection, schedule: Q04DX003 (ip), vehicle: saline
[23] = dose: 100.0 mg/kg/injection, schedule: Q01DX009 (ip), vehicle: saline with Tween-80
[24] = dose: 200.0 mg/kg/injection, schedule: Q01DX009 (ip), vehicle: saline with Tween-80
[25] = dose: 200.0 mg/kg/injection, schedule: Q04DX003 (ip), vehicle: saline with Tween-80
[26] = dose: 400.0 mg/kg/injection, schedule: Q04DX003 (ip), vehicle: saline with Tween-80
[27] = dose: 25.0 mg/kg/injection, schedule: Q01DX009 (ip), vehicle: saline with Tween-80
[28] = dose: 50.0 mg/kg/injection, schedule: Q01DX009 (ip), vehicle: saline with Tween-80
[29] = dose: 25.0 mg/kg/injection, schedule: Q04DX003 (ip), vehicle: saline with Tween-80
[30] = dose: 50.0 mg/kg/injection, schedule: Q04DX003 (ip), vehicle: saline with Tween-80

Measured: T/C

O=C1c2ccccc2C(=O)c2c1cccc2N1CCOCC1
inactive: dose: 200.0 mg/kg/injection, schedule: Q04DX002 (ip), vehicle: Klucel (hydroxypropylcellulose) (HPC) 98 % of control | dose: 400.0 mg/kg/injection, schedule: Q04DX002 (ip), vehicle: Klucel (hydroxypropylcellulose) (HPC) 112 % of control

c1ccc(Oc2ccccn2)cc1
inactive: dose: 50.0 mg/kg/injection, schedule: Q04DX003 (ip), vehicle: Klucel (hydroxypropylcellulose) (HPC) 91 % of control | [1] 94 % of control | [2] 94 % of control | [3] 97 % of control

O=C(O)CC1Sc2ccccc2NC1=O (configuration not stated)
inactive: [4] 105 % of control | [5] 94 % of control | [6] 105 % of control

C=CC[n+]1cccc(S(=O)(=O)[O-])c1
inactive: [7] 101 % of control | [8] 98 % of control | dose: 400.0 mg/kg/injection, schedule: Q04DX003 (ip), vehicle: saline 103 % of control

CN(C)c1ncnc(N)n1
inactive: [9] 91 % of control | [1] 95 % of control | [10] 88 % of control | [2] 98 % of control | [11] 90 % of control | [3] 97 % of control

O=C(O)C1CC=CCCC1 (configuration not stated)
inactive: [9] 96 % of control | [1] 101 % of control | [10] 96 % of control | [2] 101 % of control | [11] 93 % of control | [3] 98 % of control

CN(C)CCC#N
inactive: [12] 97 % of control | [13] 106 % of control | [14] 97 % of control | dose: 100.0 mg/kg/injection, schedule: Q01DX009 (ip), vehicle: saline 108 % of control | [7] 100 % of control | [15] 100 % of control | dose: 200.0 mg/kg/injection, schedule: Q01DX009 (ip), vehicle: saline 112 % of control | [8] 100 % of control | [16] 97 % of control

CCCCCOC(=O)C(C)(O)C(Cl)c1ccccc1 (configuration not stated)
inactive: [17] 102 % of control and 106 % of control | [18] 98 % of control and 103 % of control | [19] 91 % of control | dose: 600.0 mg/kg/injection, schedule: Q04DX002 (ip), vehicle: saline 117 % of control

CCNS(=O)(=O)c1ccc(Cl)c([N+](=O)[O-])c1
inactive: [4] 101 % of control | [5] 102 % of control | [6] 107 % of control

Cc1cc([N+](=O)[O-])ccc1S(=O)(=O)F
inactive: [20] 100 % of control

C=CCOB(OCC=C)OCC=C
inactive: dose: 12.5 mg/kg/injection, schedule: Q01DX009 (ip), vehicle: saline 120 % of control | dose: 25.0 mg/kg/injection, schedule: Q01DX009 (ip), vehicle: saline 101 % of control | [21] 97 % of control | [13] 106 % of control | [22] 103 % of control

O=C(OC1CC2CC1C1CSCC21)c1ccc([N+](=O)[O-])cc1 (configuration not stated)
inactive: [9] 101 % of control | [1] 105 % of control | [10] 103 % of control | [2] 105 % of control | [11] 103 % of control | [3] 97 % of control

N#CC(C#N)=Cc1ccc2ccccc2c1Br
inactive: [23] 96 % of control | [24] 94 % of control | dose: 400.0 mg/kg/injection, schedule: Q01DX009 (ip), vehicle: saline with Tween-80 90 % of control

CCNC1(c2cccs2)CCCCC1=O (configuration not stated)
inactive: dose: 20.0 mg/kg/injection, schedule: Q04DX003 (ip), vehicle: saline 102 % of control | dose: 40.0 mg/kg/injection, schedule: Q04DX003 (ip), vehicle: saline 104 % of control | dose: 80.0 mg/kg/injection, schedule: Q04DX003 (ip), vehicle: saline 102 % of control

NCCSc1ccccc1
inactive: dose: 25.0 mg/kg/injection, schedule: Q04DX002 (ip), vehicle: saline with Tween-80 92 % of control | dose: 50.0 mg/kg/injection, schedule: Q04DX002 (ip), vehicle: saline with Tween-80 101 % of control | dose: 100.0 mg/kg/injection, schedule: Q04DX002 (ip), vehicle: saline with Tween-80 96 % of control and 114 % of control

O=C(Nc1ccc(C2=NCCN2)c(Cl)c1)c1ccc(C(=O)Nc2ccc(C3=NCCN3)c(Cl)c2)cc1
inactive: dose: 1.87 mg/kg/injection, schedule: Q01DX Z (ip), vehicle: carboxymethylcellulose (CMC) 124 % of control | dose: 3.75 mg/kg/injection, schedule: Q01DX Z (ip), vehicle: carboxymethylcellulose (CMC) 124 % of control | dose: 7.5 mg/kg/injection, schedule: Q01DX Z (ip), vehicle: carboxymethylcellulose (CMC) 117 % of control | dose: 30.0 mg/kg/injection, schedule: Q01DX Z (ip), vehicle: carboxymethylcellulose (CMC) 120 % of control | dose: 120.0 mg/kg/injection, schedule: Q01DX Z (ip), vehicle: carboxymethylcellulose (CMC) 86 % of control

Nc1cccc(CCCCOc2ccccc2)c1
inactive: [23] 97 % of control | [20] 97 % of control | [24] 98 % of control | [25] 103 % of control | [26] 105 % of control

CCOC(=O)C(NC(=O)c1ccccc1)C(=O)OCC
inactive: [12] 96 % of control | [14] 96 % of control | [15] 96 % of control | [16] 96 % of control

Nc1nc(N)c2nc(CNc3ccc(Cl)c(Cl)c3)cnc2n1
inactive: dose: 1.0 mg/kg/injection, schedule: Q01DX009 (ip), vehicle: saline 103 % of control | dose: 2.0 mg/kg/injection, schedule: Q01DX009 (ip), vehicle: saline 101 % of control | dose: 4.0 mg/kg/injection, schedule: Q01DX009 (ip), vehicle: saline 94 % of control | dose: 4.0 mg/kg/injection, schedule: Q04DX003 (ip), vehicle: saline 90 % of control | dose: 8.0 mg/kg/injection, schedule: Q01DX009 (ip), vehicle: saline 90 % of control | dose: 8.0 mg/kg/injection, schedule: Q04DX003 (ip), vehicle: saline 100 % of control | dose: 16.0 mg/kg/injection, schedule: Q01DX009 (ip), vehicle: saline 87 % of control | dose: 16.0 mg/kg/injection, schedule: Q04DX003 (ip), vehicle: saline 92 % of control | dose: 32.0 mg/kg/injection, schedule: Q04DX003 (ip), vehicle: saline 97 % of control | dose: 64.0 mg/kg/injection, schedule: Q04DX003 (ip), vehicle: saline 89 % of control

Cc1nc(Cl)c(C(N)=O)nc1C
inactive: [27] 91 % of control | [28] 96 % of control | [23] 96 % of control and 97 % of control

CC1CN=C(c2ccc(O)cc2O)S1 (configuration not stated)
inactive: [17] 93 % of control | [18] 104 % of control | [19] 96 % of control

c1cc(CCc2ccncc2)ccn1
inactive: [21] 99 % of control | [22] 99 % of control | [7] 109 % of control and 89 % of control

CCCCCOS(=O)(=O)c1ccc(Cl)c([N+](=O)[O-])c1
inactive: dose: 12.5 mg/kg/injection, schedule: Q01DX009 (ip), vehicle: saline with Tween-80 93 % of control | [27] 87 % of control | [29] 95 % of control | [28] 98 % of control | [30] 90 % of control

Cc1ccc(NC(=S)N2CCOCC2)cc1C
inactive: [9] 94 % of control | [10] 100 % of control | [11] 94 % of control

C=C(C)c1ccc(C)c(C)c1
inactive: [29] 100 % of control | [30] 106 % of control | [20] 94 % of control | [25] 95 % of control | [26] 90 % of control
